Measurements reported in PubChem BioAssay AID2060340 (Molecular Pharmacology Branch, DTP, NCI, 2025).

Tested on: 349418-098-R-PDC spheroids, viability, % test/control
Experiment: Anticancer human tumor 349418-098-R-PDC patient-derived lung adenocarcinoma cell line growth inhibition [IpAb]
Conditions: spheroids with HUVEC and MSC; for IC50: curve of first compound; for viability, T/C: stronger effect = lower value
Description: Combinatorial screen of targeted agents with ipatasertib and abemaciclib in multi-cell type tumor spheroids
A high-throughput screen of multi-cell type tumor spheroids was designed to identify active combinations of targeted small molecules and ipatasertib or abemaciclib. Complex spheroids include a stromal component modeled by human endothelial cells (HUVEC) and fibroblasts modeled by human mesenchymal stem cells (MSCs). The concentration ranges selected for each drug and investigational agent were based upon clinically achievable concentrations if the clinical Cmax of the agent was known.
Compounds. The drugs and investigational agents: ipatasertib (NSC767898), abemaciclib(NSC768073), selumetinib (NSC741078), trametinib (758246), adavosertib (NSC754352), everolimus (NSC733504), sapanisertib (NSC764658), vemurafenib (NSC761431), venetoclax (NSC766270), copanlisib (NSC809693), apelisib (NSC765974), palbociblib (NSC758247), vemurafenib (NSC761431), dabrafenib (NSC764134), ravoxertinib (NSC781343), BMS-387032 (NSC767048), sotorasib (NSC818433), talazoparib (NSC767125) and afursertib (NSC778305), were obtained from the National Cancer Institute (NCI) Developmental Therapeutics Program Chemical Repository. The FDA-approved anticancer drug set is available from the NCI Developmental Therapeutics Program. […] The stock solutions were prepared in dimethyl sulfoxide (DMSO, Sigma-Aldrich, St. Louis, MO, cat. D2650) at 800-fold the tested concentration and stored at -70 degrees C prior to their use. All drugs and investigational agents were tested over a range starting from a high concentration at or near the clinical Cmax and decreasing in half-log increments. If the clinical Cmax for an agent had not been determined, the highest concentration tested was 10 microM.
NCI60 Cell Culture. NCI60 cell lines were obtained from the NCI Developmental Therapeutics Program Tumor Repository. For each lot of cells, the Repository performed Applied Biosystems AmpFLSTR Identifiler testing with PCR amplification to confirm consistency with the published Identifier STR profile for each cell line. Cells were kept in continuous culture for no more than 20 passages. The optimal seeding densities for each of the cell lines at each time point assessed were determined prior to performing the concentration response studies. Briefly, the NCI60 human tumor lines were grown as monolayers in RPMI 1640 medium supplemented with 10% FBS and 2 mmol/L L-glutamine.
An additional 9 lines were from the NCI60 cell line panel including MDA-MB-231 breast carcinoma, MDA-MB-468 breast carcinoma, MCF7 breast carcinoma, Hs578T breast carcinoma, MALME-3M melanoma, SK-MEL-2 melanoma, SK-OV-3 ovarian carcinoma, DU-145 prostate carcinoma, PC-3 prostate carcinoma, all cell lines along with major genetic alterations are listed on Table 2. Pooled donor human umbilical vein endothelial cells (HUVEC, Lonza, cat. CC-2519) and human mesenchymal stem cells (hMSC, Lonza, cat. PT-2501) were purchased from Lonza (Walkersville, MD).
PDMR cell lines were grown in complete medium (DC medium): Dulbecco's modified Eagle's medium (DMEM)/F12 supplemented with 5% fetal bovine serum (FBS), 2 mM L-glutamine, 100 U/mL penicillin and 100 µg/ml streptomycin, 0.4 µg/ml hydrocortisone, 10 ng/ml epidermal growth factor (EGF) recombinant human protein, 24 µg/mL adenine, and 0.1 mg/mL primocin. During culture from frozen stock vials, PDMR cells were cultured in the same medium containing 10 µM Y-27632 (see Table 3). The PDCs were cultured in complete DMEM/F12 media without 10 microM Y-27632 dihydrochloride for at least two passages prior to the screen. The pooled donor HUVEC and hMSC were cultured in endothelial cell growth medium 2 (PromoCell, Heidelberg, Germany, cat. C-22011) and mesenchymal stem cell growth medium 2 (PromoCell, cat. C-28009), respectively. For all experiments, HUVEC and hMSC were used at passages </=5.
[…]

[1] = second compound 0.01 µM, first compound 0.0316 µM
[2] = second compound 0.01 µM, first compound 0.1 µM
[3] = second compound 0.0316 µM, first compound 0.0316 µM
[4] = second compound 0.0316 µM, first compound 0.1 µM
[5] = second compound 0.1 µM, first compound 0.0316 µM
[6] = second compound 0.1 µM, first compound 0.1 µM
[7] = second compound 0.316 µM, first compound 0.0316 µM
[8] = second compound 0.316 µM, first compound 0.1 µM
[9] = second compound 1 µM, first compound 0.0316 µM
[10] = second compound 1 µM, first compound 0.1 µM
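Also: spheroids exposed to compounds for 7 days.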

## CC(C)n1nc(-c2ccc3oc(N)nc3c2)c2c(N)ncnc21 + CCN1CCN(Cc2ccc(Nc3ncc(F)c(-c4cc(F)c5nc(C)n(C(C)C)c5c4)n3)nc2)CC1
Second compound 0.01 µM
  IC50: 0.659 nM
Second compound 0.0316 µM
  IC50: < 0.316 nM
Second compound 0.1 µM
  IC50: < 0.316 nM
Second compound 0.316 µM
  IC50: < 0.316 nM
Second compound 1 µM
  IC50: < 0.316 nM
Second compound 0.01 µM, first compound 0.000316 µM
  viability, T/C: 78.5%
Second compound 0.01 µM, first compound 0.001 µM
  viability, T/C: 33.8%
Second compound 0.01 µM, first compound 0.00316 µM
  viability, T/C: 13.3%
Second compound 0.01 µM, first compound 0.01 µM
  viability, T/C: 8.46%
[1]
  viability, T/C: 7.29%
[2]
  viability, T/C: 6.79%
Second compound 0.0316 µM, first compound 0.000316 µM
  viability, T/C: 38.4%
Second compound 0.0316 µM, first compound 0.001 µM
  viability, T/C: 22.3%
Second compound 0.0316 µM, first compound 0.00316 µM
  viability, T/C: 10.4%
Second compound 0.0316 µM, first compound 0.01 µM
  viability, T/C: 6.7%
[3]
  viability, T/C: 6.75%
[4]
  viability, T/C: 6.38%
Second compound 0.1 µM, first compound 0.000316 µM
  viability, T/C: 26.9%
Second compound 0.1 µM, first compound 0.001 µM
  viability, T/C: 14.9%
Second compound 0.1 µM, first compound 0.00316 µM
  viability, T/C: 10.1%
Second compound 0.1 µM, first compound 0.01 µM
  viability, T/C: 7.85%
[5]
  viability, T/C: 6.9%
[6]
  viability, T/C: 6.67%
Second compound 0.316 µM, first compound 0.000316 µM
  viability, T/C: 20.2%
Second compound 0.316 µM, first compound 0.001 µM
  viability, T/C: 13.6%
Second compound 0.316 µM, first compound 0.00316 µM
  viability, T/C: 9.36%
Second compound 0.316 µM, first compound 0.01 µM
  viability, T/C: 7.22%
[7]
  viability, T/C: 7.46%
[8]
  viability, T/C: 6.4%
Second compound 1 µM, first compound 0.000316 µM
  viability, T/C: 14.4%
Second compound 1 µM, first compound 0.001 µM
  viability, T/C: 12.4%
Second compound 1 µM, first compound 0.00316 µM
  viability, T/C: 8.8%
Second compound 1 µM, first compound 0.01 µM
  viability, T/C: 7.28%
[9]
  viability, T/C: 7.88%
[10]
  viability, T/C: 6.96%

## CCCS(=O)(=O)Nc1ccc(F)c(C(=O)c2c[nH]c3ncc(-c4ccc(Cl)cc4)cc23)c1F + CCN1CCN(Cc2ccc(Nc3ncc(F)c(-c4cc(F)c5nc(C)n(C(C)C)c5c4)n3)nc2)CC1
Second compound 0.01 µM
  IC50: 91.3 nM
Second compound 0.0316 µM
  IC50: < 31.6 nM
Second compound 0.1 µM
  IC50: < 31.6 nM
Second compound 0.316 µM
  IC50: < 31.6 nM
Second compound 1 µM
  IC50: < 31.6 nM
[1]
  viability, T/C: 59.7%
[2]
  viability, T/C: 50.3%
Second compound 0.01 µM, first compound 0.316 µM
  viability, T/C: 32.9%
Second compound 0.01 µM, first compound 1 µM
  viability, T/C: 37.3%
Second compound 0.01 µM, first compound 3.16 µM
  viability, T/C: 27.6%
Second compound 0.01 µM, first compound 10 µM
  viability, T/C: 16.7%
[3]
  viability, T/C: 34.7%
[4]
  viability, T/C: 23.7%
Second compound 0.0316 µM, first compound 0.316 µM
  viability, T/C: 27.6%
Second compound 0.0316 µM, first compound 1 µM
  viability, T/C: 28.3%
Second compound 0.0316 µM, first compound 3.16 µM
  viability, T/C: 20.8%
Second compound 0.0316 µM, first compound 10 µM
  viability, T/C: 11.4%
[5]
  viability, T/C: 18.8%
[6]
  viability, T/C: 17.6%
Second compound 0.1 µM, first compound 0.316 µM
  viability, T/C: 17.3%
Second compound 0.1 µM, first compound 1 µM
  viability, T/C: 17.2%
Second compound 0.1 µM, first compound 3.16 µM
  viability, T/C: 14.2%
Second compound 0.1 µM, first compound 10 µM
  viability, T/C: 8.97%
[7]
  viability, T/C: 14.3%
[8]
  viability, T/C: 13.6%
Second compound 0.316 µM, first compound 0.316 µM
  viability, T/C: 12.5%
Second compound 0.316 µM, first compound 1 µM
  viability, T/C: 10.8%
Second compound 0.316 µM, first compound 3.16 µM
  viability, T/C: 10.5%
Second compound 0.316 µM, first compound 10 µM
  viability, T/C: 9.39%
[9]
  viability, T/C: 14.1%
[10]
  viability, T/C: 11.8%
Second compound 1 µM, first compound 0.316 µM
  viability, T/C: 11.1%
Second compound 1 µM, first compound 1 µM
  viability, T/C: 9.39%
Second compound 1 µM, first compound 3.16 µM
  viability, T/C: 9.24%
Second compound 1 µM, first compound 10 µM
  viability, T/C: 7.05%
